Assay results as given in patent US20240247048A1 (EMORY UNIVERSITY, priority 2021, published 2024).

What was measured:
[1] = system: MT5, KPC-Luc, Panc02, BXPC3, Capan-02 PDAC cell lines; experiment: cell viability assay (MTT) of PDAC cell lines; type: cell-based, mouse and human; details: 0-5 uM, 72 hours; FIG. 13E, 24a
Method: (§1) (FIG. 24A) Percentage viability of murine (MT5, KPC.Luc, Panc02) and human (Capan02, BxPC3) PDAC cell lines cultured in the presence of different concentrations ranging from 0-5 μM of ANT008 for 72 hours is plotted. Confirmation of CRISPR-Cas9 KO of VIPR2 encoding VPAC2 receptor via (FIG. 24B) western blot; (FIG. 24C) RT-PCR using primers targeting exon 9-12 downstream of targeted site and (FIG. 24D) Sanger Sequencing showing the validation of in-del mutation in exon 2. In vitro MTT assay showing (FIG. 24E) Proliferation of WT and KO cells over 72 hours; (FIG. 24F) Percent viability of wild type (WT) and VPAC2 KO (KO) Panc02 cells treated with ANT008 and ANT308 at 3 μM for 72 hours. (FIG. 24G) Tumor growth curve of WT versus KO Panc02 cells in C57BL/6 mice following subcutaneous tumor implantation. Values represent median tumor volume±95% confidence interval. (FIG. 24H) Kaplan-Meier survival plots corresponding to results in FIG. 24G. Median survival time for WT is 21 days and 28 days for VPAC2 KO. Error bars represent mean and standard deviation. *p<0.05, **p<0.01.
(§2) Cell viability assay. […] Cell viability was assessed using cell proliferation kit I from Roche (Basel, Switzerland), following the manufacturer's instructions. […] This was followed by incubation with solubilization buffer overnight and reading the absorbance at 570 nm. […]

KPC-Luc tumors = experiment: subcutaneous KPC / KPC-Luc pancreatic tumors in C57BL/6 mice; type: in vivo, mouse
Method: Shown are scrambled peptide plus IgG, Ant308 plus anti-PD1, scrambled peptide plus anti-PD-1, Ant308 plus IgG, and Ant308 plus AMD3100. Tumor volume was measured with calipers. ‘Star’ (*) indicates mice euthanized either due to large tumor volume (>500 mm^3) or ulceration of the skin overlying the tumor.
This decease in tumor volume was more pronounced in combination with anti-PD1 treatment. We also examined the effect of ANT308 in combination with Iso IgG or anti-PD1 antibody had on tumor volume as measured as a percent change in volume (FIG. 8A) and in measured volume (FIG. 8B). […] Investigating this effect more completely, we observed that combination treatment with both anti-PD1 and VIP-R antagonist was able to slow tumor growth relative to control mice treated with scrambled peptide and iso-type matched IgG, with the combination showing a statistically significant improvement in the rate of tumor growth (FIG. 8D). […]
In vivo efficacy studies. […] In the KPC-Luc models, the tumor growth rate was plotted using the tumor flux measurements quantified using IVIS bioluminescent imaging. […] In experiments with subcutaneous tumors, Vernier calipers were used to measure the tumor dimensions and the tumor volume was calculated using the formula: tumor volume=½(length×width×height).

[2] = system: wild type and VPAC2 KO Panc02 cells; experiment: MTT viability of wild type and VPAC2 KO Panc02 cells; type: cell-based, mouse; details: 3 uM for 72 hours; FIG. 24f
Method: as §1, §2

Row | Sequence | viability and growth of PDAC cell lines in vitro [1] | growth of tumors compared with control mice (scrambled peptide and isotype-matched IgG) (KPC-Luc tumors; FIG. 9) | tumor volume (KPC-Luc tumors; day 22, 3 days after a 10-day course, FIG. 7) | in vitro growth of VPAC2 knockout or wild-type Panc02 cells [2]
1 | KPRRPYTDNYTRLRKQMAVKKYLNLILN [ANT008] | did not affect viability of PDAC cell lines in vitro, except a transient effect in MT5 | – | – | –
2 | KPRRPYTSDYTRLRKQMAVKKYLNLILN [ANT308] | – | not statistically different | reduced tumor volume | did not inhibit
